Results: patent US8653000B2, “Imine substituted 2,4-diaryl-pyrroline derivatives as pesticides” (BASF SE, priority 2010, dated 2014)

What was measured:
Assay type in all cases: in vivo
[1] = test system: Mediterranean fruitfly (Ceratitis capitata); assay: Mediterranean fruitfly microtiter plate test on insect diet with eggs; settings: 120 h, sprayed onto insect diet, egg and larval mortality after 5 days, read-out: mortality in comparison with untreated controls
Experimental: B.5 Mediterranean Fruitfly (Ceratitis Capitata)
For evaluating control of Mediterranean fruitfly (Ceratitis capitata) the test unit consisted of microtiter plates containing an insect diet and 50-80 C. capitata eggs.
(§1) The compounds were formulated using a solution containing 75% v/v water and 25% v/v DMSO. Different concentrations of formulated compounds were sprayed onto the insect diet at 5 μl, using a custom built micro atomizer, at two replications.
(§2) After application, microtiter plates were incubated at about 28±1° C. and about 80±5% relative humidity for 5 days. Egg and larval mortality was then visually assessed.

[2] = test system: tobacco budworm (Heliothis virescens); assay: Tobacco budworm microtiter plate test on insect diet with eggs; settings: 120 h, sprayed onto insect diet, egg and larval mortality after 5 days, read-out: mortality in comparison with untreated controls
Experimental: B.11 Tobacco Budworm (Heliothis Virescens) I
as §1, with “For evaluating control of tobacco budworm (Heliothis virescens) the test unit consisted of 96-well-microtiter plates containing an insect diet and 15-25 H. virescens eggs. The” for “The”, “at 10” for “at 5”
as §2

[3] = test system: Orchid Thrips (Dichromothrips corbetti); assay: Orchid thrips floral-immersion test; settings: 96 h, after 4 days, read-out: mortality in comparison with untreated controls
Experimental: B.6 Orchid Thrips (Dichromothrips corbetti)
Dichromothrips corbettiadults used for bioassay were obtained from a colony maintained continuously under laboratory conditions. For testing purposes, the test compound was diluted to a concentration of 500 ppm (wt compound: vol diluent) in a 1:1 mixture of acetone:water (vol:vol), plus 0.01% vol/vol Kinetic® surfactant.
Thrips potency of each compound was evaluated by using a floral-immersion technique. Plastic petri dishes were used as test arenas. All petals of individual, intact or chid flowers were dipped into treatment solution and allowed to dry. Treated flowers were placed into individual petri dishes along with 10-15 adult thrips. The petri dishes were then covered with lids. All test arenas were held under continuous light and a temperature of about 28° C. for duration of the assay. After 4 days, the numbers of live thrips were counted on each flower, and along inner walls of each petri dish. The level of thrips mortality was extrapolated from pre-treatment thrips numbers.

[4] = test system: boll weevil (Anthonomus grandis); assay: Boll weevil microtiter plate test on insect diet with eggs; settings: 120 h, sprayed onto insect diet, egg and larval mortality after 5 days, read-out: mortality in comparison with untreated controls
Experimental: B.12 Boll Weevil (Anthonomus Grandis)
For evaluating control of boll weevil (Anthonomus grandis) the test unit consisted of 24-well-microtiter plates containing an insect diet and 20-30 A. grandis eggs.
The compounds were formulated using a solution containing 75% v/v water and 25% v/v DMSO. Different concentrations of formulated compounds were sprayed onto the insect diet at 20 μl, using a custom built micro atomizer, at two replications. After application, microtiter plates were incubated at about 23±1° C. and about 50±5% relative humidity for 5 days. Egg and larval mortality was then visually assessed.

[5] = test system: vetch aphid (Megoura viciae); assay: Vetch aphid test on broad bean leaf disks in 24-well plates; settings: foliar, 120 h, sprayed onto leaf disks, 5 days, read-out: mortality in comparison with untreated controls
Experimental: B.10 Vetch Aphid (Megoura Viciae)
For evaluating control of vetch aphid (Megoura viciae) through contact or systemic means the test unit consisted of 24-well-microtiter plates containing broad bean leaf disks.
The compounds were formulated using a solution containing 75% v/v water and 25% v/v DMSO. Different concentrations of formulated compounds were sprayed onto the leaf disks at 2.5 μl, using a custom built micro atomizer, at two replications.
After application, the leaf disks were air-dried and 5-8 adult aphids placed on the leaf disks inside the microtiter plate wells. The aphids were then allowed to suck on the treated leaf disks and incubated at about 23±1° C. and about 50±5% relative humidity for 5 days. Aphid mortality and fecundity was then visually assessed.

[6] = test system: Diamond Back Moth (Plutella Xylostella); assay: Diamond back moth leaf-dip test on Chinese cabbage; settings: foliar, mortality recorded 24, 72 and 120 hours after treatment, read-out: mortality in comparison with untreated controls
Experimental: B.3 Diamond Back Moth (Plutella Xylostella)
Leaves of Chinese cabbage were dipped in test solution and air-dried. Treated leaves were placed in petri dished lined with moist filter paper. Mortality was recorded 24, 72, and 120 hours after treatment.

[7] = test system: Southern Armyworm (Spodoptera Eridania); assay: Southern armyworm spray test on lima bean plants; settings: foliar, 96 h, lima bean foliage sprayed, 4 days after treatment, read-out: mortality in comparison with untreated controls
Experimental: B.9 Southern Armyworm (Spodoptera Eridania)
(§3) The active compounds were formulated in cyclohexanone as a 10,000 ppm solution supplied in tubes. The tubes were inserted into an automated electrostatic sprayer equipped with an atomizing nozzle and they served as stock solutions for which lower dilutions were made in 50% acetone:50% water (v/v). A nonionic surfactant (Kinetic®) was included in the solution at a volume of 0.01% (v/v).
Lima bean plants (variety Sieva) were grown 2 plants to a pot and selected for treatment at the 1st true leaf stage. Test solutions were sprayed onto the foliage by an automated electrostatic plant sprayer equipped with an atomizing spray nozzle. The plants were dried in the sprayer fume hood and then removed from the sprayer. Each pot was placed into perforated plastic bags with a zip closure. About 10 to 11 armyworm larvae were placed into the bag and the bags zipped closed. Test plants were maintained in a growth room at about 25° C. and about 20-40% relative humidity for 4 days, avoiding direct exposure to fluorescent light (24 hour photoperiod) to prevent trapping of heat inside the bags. Mortality and reduced feeding was assessed 4 days after treatment, compared to untreated control plants.

[8] = test system: Red Spider Mite (Tetranychus Kanzawai); assay: Red spider mite spray test on potted cowpea beans; settings: cowpea beans sprayed, after 72 h, read-out: mortality in comparison with untreated controls
Experimental: B.14 Red Spider Mite (Tetranychus Kanzawai)
The active compound was dissolved at the desired concentration in a mixture of 1:1 (v/v) distilled water:acetone. A surfactant (Alkamuls® EL 620) was added at the rate of 0.1% (v/v).
Potted cowpea beans of 7-10 days of age were cleaned with tap water and sprayed with 5 ml of the test solution using air driven hand atomizer. The treated plants were allowed to air dry and afterwards inculated with 20 or more mites by clipping a cassaya leaf section with known mite population. Treated plants were placed inside a holding room at about 25-27° C. and about 50-60% relative humidity.
Mortality was determined by counting the live mites 72 HAT. Percent mortality was assessed after 72 h.

[9] = test system: Cowpea Aphid (Aphis Craccivora); assay: Cowpea aphid spray test on potted cowpea plants; settings: cowpea plants sprayed, population reduction assessed after 24, 72 and 120 hours, read-out: mortality in comparison with untreated controls
Experimental: B.2 Cowpea Aphid (Aphis Craccivora)
Potted cowpea plants colonized with approximately 100-150 aphids of various stages were sprayed after the pest population had been recorded. Population reduction was assessed after 24, 72, and 120 hours.

[10] = test system: green peach aphid (Myzus persicae); assay: Green peach aphid systemic test, artificial diet in 96-well plates; settings: 72 h, 3 days, read-out: mortality in comparison with untreated controls
Source text: B.4 Green Peach Aphid (Myzus Persicae)
For evaluating control of green peach aphid (Myzus persicae) through systemic means the test unit consisted of 96-well-microtiter plates containing liquid artificial diet under an artificial membrane.
The compounds were formulated using a solution containing 75% v/v water and 25% v/v DMSO. Different concentrations of formulated compounds were pipetted into the aphid diet, using a custom built pipetter, at two replications.
After application, 5-8 adult aphids were placed on the artificial membrane inside the microtiter plate wells. The aphids were then allowed to suck on the treated aphid diet and incubated at about 23±1° C. and about 50±5% relative humidity for 3 days. Aphid mortality and fecundity was then visually assessed.

[11] = test system: Colorado Potato Beetle (Leptinotarsa Decemlineata); assay: Colorado potato beetle test on sprayed eggplant foliage; settings: at 10 ppm, 4 days after treatment
Experimental: B.13 Colorado Potato Beetle (Leptinotarsa Decemlineata)
as §3
Eggplants were grown 2 plants to a pot and were selected for treatment at the 1st true leaf stage. Test solutions were sprayed onto the foliage by an automated electrostatic plant sprayer equipped with an atomizing spray nozzle. The plants were dried in the sprayer fume hood and then removed from the sprayer. The treated foliage was then cut and removed from the pot and placed in a 5-inch Petri dish lined with moistened filter paper. Five beetle larvae were introduced into each Petri dish and the dish was covered by a Petri dish lid. Petri dishes were maintained in a growth room at 25° C. and 20-40% relative humidity for 4 days, avoiding direct exposure to fluorescent light (24 hour photoperiod) to prevent trapping of heat inside the dishes. Mortality and reduced feeding were assessed 4 days after treatment, compared to untreated control plants.

[12] = test system: Silverleaf Whitefly (Bemisia Argentifolii); assay: Silverleaf whitefly spray test on cotton plants; settings: at 300 ppm; cotton plants sprayed; 3 days after treatment
Source text: B.8 Silverleaf Whitefly (Bemisia Argentifolii)
as §3, with “(Kinetic)” for “(Kinetic®)”
Cotton plants at the cotyledon stage (one plant per pot) were sprayed by an automated electrostatic plant sprayer equipped with an atomizing spray nozzle. The plants were dried in the sprayer fume hood and then removed from the sprayer. Each pot was placed into a plastic cup and about 10 to 12 whitefly adults (approximately 3-5 days old) were introduced. The insects were collected using an aspirator and a nontoxic Tygon® tubing connected to a barrier pipette tip. The tip, containing the collected insects, was then gently inserted into the soil containing the treated plant, allowing insects to crawl out of the tip to reach the foliage for feeding. Cups were covered with a reusable screened lid. […] Mortality was assessed 3 days after treatment, compared to untreated control plants.

Cc1cc(C2=NCC(c3cc(Cl)cc(Cl)c3)(C(F)(F)F)C2)ccc1/C=N/NC(=O)NCC(F)(F)F (stereo not drawn) [Compound 1-3, 1-[(E)-[4-[3-(3,5-dichlorophenyl)-3-(trifluoromethyl)-2,4-dihydropyrrol-5-yl]-2-methyl-phenyl]methyleneamino]-3-(2,2,2-trifluoroethyl)urea]
≥ 75%: mortality at 2500 ppm [1] | mortality at 2500 ppm [2] | mortality at 500 ppm [3] | mortality at 2500 ppm [4] | mortality at 2500 ppm [5] | mortality at 500 ppm [6] | mortality at 1 ppm [7] | mortality at 500 ppm [8] | mortality at 500 ppm [9] | mortality at 2500 ppm [10]

CNC(=O)NN=Cc1ccc(C2=NCC(c3cc(Cl)cc(Cl)c3)(C(F)(F)F)C2)cc1Cl (racemic) [Compound 2-4]
at least 75%: mortality in comparison with untreated controls [11]

O=C(NCC(F)(F)F)NN=Cc1ccc(C2=NCC(c3cc(Cl)cc(Cl)c3)(C(F)(F)F)C2)cc1Cl (racemic) [Compound 2-3]
at least 75%: mortality in comparison with untreated controls [12]
